Data on 14 molecules can be found in paper PMC3131451 (Journal of medicinal chemistry, 2010).

In one test the target is PI3Kα (PIK3CA/PIK3R1) (Homo sapiens, UniProt P42336). Briefly: LanthaScreen Eu kinase binding assay PI3Kα. Conditions: for activity in words, biochemical and cell-based assays: both in the biochemical and cell-based assays (Table 1). On the technique in general: TR-FRET usually uses a lanthanide donor and a delayed reading to cut background.
The next test concerns the target DNA-PK (Homo sapiens, UniProt P78527). Briefly: Selectivity panel, kinase inhibition. Format: biochemical.
A further test relates to 314 protein kinases. Briefly: Selectivity panel against 314 protein kinases. It is filed as biochemical. Conditions: 10 µM, preliminary selectivity panel.
The subject of a further test is U87 glioblastoma cells. Description: 3D culture assay, U87 spheroids. Format: cell-based, human. To be noted: 10 µM every day, total of 6 days.
A further test concerns the target mTOR (FRAP1) (Homo sapiens, UniProt P42345). Briefly: LanthaScreen Eu kinase binding assay mTOR. To be noted: read-out: Kinase assay IC50 mTOR.
For another test, the target named is T1, PDK1 (Homo sapiens, UniProt O15530).
T1 sequence (O15530 1-556): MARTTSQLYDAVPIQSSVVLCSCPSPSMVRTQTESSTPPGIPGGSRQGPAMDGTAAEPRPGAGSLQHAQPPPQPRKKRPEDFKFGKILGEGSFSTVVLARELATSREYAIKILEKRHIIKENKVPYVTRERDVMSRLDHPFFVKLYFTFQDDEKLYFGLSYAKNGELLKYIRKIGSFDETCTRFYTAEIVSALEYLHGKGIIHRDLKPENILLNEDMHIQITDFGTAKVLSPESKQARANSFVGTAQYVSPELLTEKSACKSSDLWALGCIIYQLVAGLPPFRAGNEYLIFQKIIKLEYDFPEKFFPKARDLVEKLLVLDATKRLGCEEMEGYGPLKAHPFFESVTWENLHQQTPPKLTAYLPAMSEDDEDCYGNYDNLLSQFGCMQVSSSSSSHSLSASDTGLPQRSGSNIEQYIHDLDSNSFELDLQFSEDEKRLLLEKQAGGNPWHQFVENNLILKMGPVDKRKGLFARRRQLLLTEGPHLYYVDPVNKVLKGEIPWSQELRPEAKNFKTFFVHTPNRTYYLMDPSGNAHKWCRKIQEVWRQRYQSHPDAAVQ
Briefly: Z'-LYTE kinase activity assay PDK1. It is filed as biochemical. To be noted: read-out: Kinase assay IC50 PDK1, ATP at Km.

A further test relates to PRAS40 [pS183]. Briefly: LanthaScreen cellular assay PRAS40 [pSer183]. To be noted: HEK293E, 1 h, read-out: Cell-based Assay IC50 PRAS40 [pS183].
Test [1] relates to Hela cervical carcinoma cells. Description: Anti-proliferative assay. To be noted: Homo sapiens, 72 h, read-out: Cell-based Assay GI50 Hela.
The target of the next test is PI-3Kα (Homo sapiens, UniProt P42336). Briefly: SelectScreen Biochemical Kinase Profiling PI-3Kα. To be noted: in vitro displacement assays against the PI3K isoforms.
Sequence of PI-3Kα (P42336 whole entry, canonical isoform): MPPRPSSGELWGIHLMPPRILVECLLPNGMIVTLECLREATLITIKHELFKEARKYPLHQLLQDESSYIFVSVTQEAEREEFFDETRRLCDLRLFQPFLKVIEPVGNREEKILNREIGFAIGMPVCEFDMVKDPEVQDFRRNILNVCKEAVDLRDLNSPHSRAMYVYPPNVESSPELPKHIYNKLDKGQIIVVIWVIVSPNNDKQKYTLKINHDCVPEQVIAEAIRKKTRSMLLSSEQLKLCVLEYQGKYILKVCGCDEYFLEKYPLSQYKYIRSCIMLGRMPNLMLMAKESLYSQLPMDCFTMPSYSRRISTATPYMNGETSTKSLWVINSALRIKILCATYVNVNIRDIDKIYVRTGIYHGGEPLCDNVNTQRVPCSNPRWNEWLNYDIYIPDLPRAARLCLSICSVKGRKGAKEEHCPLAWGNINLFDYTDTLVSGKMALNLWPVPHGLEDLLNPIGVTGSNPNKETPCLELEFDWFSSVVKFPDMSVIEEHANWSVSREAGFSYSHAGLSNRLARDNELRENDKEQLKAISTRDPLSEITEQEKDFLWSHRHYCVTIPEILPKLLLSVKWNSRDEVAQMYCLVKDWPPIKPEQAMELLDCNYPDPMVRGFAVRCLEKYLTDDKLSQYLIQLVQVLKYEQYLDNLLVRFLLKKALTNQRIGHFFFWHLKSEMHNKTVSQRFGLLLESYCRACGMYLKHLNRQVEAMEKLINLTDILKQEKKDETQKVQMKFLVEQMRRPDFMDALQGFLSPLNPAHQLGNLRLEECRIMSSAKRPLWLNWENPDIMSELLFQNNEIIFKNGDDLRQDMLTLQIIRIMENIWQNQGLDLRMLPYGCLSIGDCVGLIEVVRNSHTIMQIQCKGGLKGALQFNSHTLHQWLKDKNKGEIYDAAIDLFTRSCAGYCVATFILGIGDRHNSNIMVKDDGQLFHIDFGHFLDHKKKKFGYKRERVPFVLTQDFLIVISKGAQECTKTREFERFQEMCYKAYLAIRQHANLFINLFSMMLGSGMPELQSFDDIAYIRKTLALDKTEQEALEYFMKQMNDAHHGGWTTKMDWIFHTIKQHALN
Sequence of PI-3Kα (P27986 whole entry partner, canonical isoform): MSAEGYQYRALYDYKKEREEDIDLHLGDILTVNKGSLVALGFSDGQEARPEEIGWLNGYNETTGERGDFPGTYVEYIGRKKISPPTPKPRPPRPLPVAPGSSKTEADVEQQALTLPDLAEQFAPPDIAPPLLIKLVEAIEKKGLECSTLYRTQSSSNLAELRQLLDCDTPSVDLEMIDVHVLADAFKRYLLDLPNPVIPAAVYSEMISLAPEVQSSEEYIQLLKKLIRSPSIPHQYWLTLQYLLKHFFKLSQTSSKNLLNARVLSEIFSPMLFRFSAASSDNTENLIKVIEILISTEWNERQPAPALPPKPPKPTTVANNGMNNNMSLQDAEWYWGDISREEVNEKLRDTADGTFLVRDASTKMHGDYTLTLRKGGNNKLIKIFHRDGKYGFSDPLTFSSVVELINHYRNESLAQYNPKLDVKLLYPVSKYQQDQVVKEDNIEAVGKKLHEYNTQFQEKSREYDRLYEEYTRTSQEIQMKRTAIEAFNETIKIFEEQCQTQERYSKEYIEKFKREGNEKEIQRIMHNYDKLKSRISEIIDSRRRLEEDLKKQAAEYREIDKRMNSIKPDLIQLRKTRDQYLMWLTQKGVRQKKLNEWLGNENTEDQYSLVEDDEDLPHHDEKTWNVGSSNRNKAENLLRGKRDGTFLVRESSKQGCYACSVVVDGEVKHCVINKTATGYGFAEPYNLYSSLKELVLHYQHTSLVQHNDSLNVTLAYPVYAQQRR

Sequence of PI3Kα (PIK3CA/PIK3R1) (P42336 whole entry): as the sequence (P42336 whole entry, canonical isoform) above
Sequence of PI3Kα (PIK3CA/PIK3R1) (P27986 whole entry partner): as the sequence (P27986 whole entry partner, canonical isoform) above
Sequence of mTOR (FRAP1) (P42345 1360-2549 limits assumed): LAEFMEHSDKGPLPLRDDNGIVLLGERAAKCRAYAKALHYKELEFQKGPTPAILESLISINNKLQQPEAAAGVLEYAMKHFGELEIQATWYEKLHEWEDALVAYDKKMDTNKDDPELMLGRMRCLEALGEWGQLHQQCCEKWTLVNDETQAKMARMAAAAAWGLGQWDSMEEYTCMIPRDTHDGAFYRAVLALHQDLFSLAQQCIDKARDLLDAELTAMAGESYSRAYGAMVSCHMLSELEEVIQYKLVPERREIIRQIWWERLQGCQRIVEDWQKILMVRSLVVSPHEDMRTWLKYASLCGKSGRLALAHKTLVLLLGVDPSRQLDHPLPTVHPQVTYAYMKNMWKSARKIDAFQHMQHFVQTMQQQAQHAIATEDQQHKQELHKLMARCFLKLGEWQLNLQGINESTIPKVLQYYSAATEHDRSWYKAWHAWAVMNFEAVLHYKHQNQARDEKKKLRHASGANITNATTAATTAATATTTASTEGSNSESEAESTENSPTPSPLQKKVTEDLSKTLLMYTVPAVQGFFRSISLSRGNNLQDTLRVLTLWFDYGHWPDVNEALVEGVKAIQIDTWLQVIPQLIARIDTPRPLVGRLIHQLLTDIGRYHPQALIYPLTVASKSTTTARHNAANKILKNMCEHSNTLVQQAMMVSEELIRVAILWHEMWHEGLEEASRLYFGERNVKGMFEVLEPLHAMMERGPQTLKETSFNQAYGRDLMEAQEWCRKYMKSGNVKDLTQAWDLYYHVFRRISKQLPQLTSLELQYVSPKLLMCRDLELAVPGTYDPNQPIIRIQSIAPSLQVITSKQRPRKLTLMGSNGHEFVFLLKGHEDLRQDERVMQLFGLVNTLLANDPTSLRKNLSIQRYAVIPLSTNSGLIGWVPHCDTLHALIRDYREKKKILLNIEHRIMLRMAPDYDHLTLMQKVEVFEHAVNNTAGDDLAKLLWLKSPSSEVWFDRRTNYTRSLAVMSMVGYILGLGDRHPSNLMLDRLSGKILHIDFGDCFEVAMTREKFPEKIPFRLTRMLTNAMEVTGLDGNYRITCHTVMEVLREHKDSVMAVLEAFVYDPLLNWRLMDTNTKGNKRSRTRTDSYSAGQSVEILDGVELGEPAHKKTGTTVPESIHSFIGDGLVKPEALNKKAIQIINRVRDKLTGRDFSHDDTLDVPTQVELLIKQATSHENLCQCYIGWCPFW

For `C(#Cc1n[nH]c2ccccc12)c1ccccc1` [Compound 7, 3-(phenylethynyl)-1H-indazole], the IC50 in the test with AKT [pT308] was over 100 µM. The “PI3Kα activity in words” value at PI3Kα (PIK3CA/PIK3R1) is reported as “poor activity”.

The molecule `C(#Cc1n[nH]c2ccccc12)c1ccncc1` [Compound 10, 3-(pyridin-4-ylethynyl)-1H-indazole] displayed an inhibition at 10 µM at DNA-PK of over 50%. In the test with 314 protein kinases, the “share of 314 protein kinases showing ≥ 50% inhibition” value was “less than 10%”. Further, the “U87 spheroid cell growth/proliferation (spheroid volumes)” value in the test with U87 glioblastoma cells was “strongly suppressed cell growth/proliferation”.

As to `CN(C)CC#Cc1n[nH]c2ccccc12` [Compound 11, 3-(1H-indazol-3-yl)-N,N-dimethylprop-2-yn-1-amine], the IC50 with AKT [pT308] is over 100 µM. Besides, the “activity in words, biochemical and cell-based assays” value on PI3Kα (PIK3CA/PIK3R1) is “inactive”.

`C(#Cc1n[nH]c2ccccc12)c1ccsc1` [Compound 18, 3-(thiophen-3-ylethynyl)-1H-indazole] came in with an IC50 in the test with AKT [pT308] of over 100 µM. Moreover, the “PI3Kα activity in words” value at PI3Kα (PIK3CA/PIK3R1) is recorded as “poor activity”.

Regarding “3-(pyridin-2-ylethynyl)-1H-pyrazolo[3,4-b]pyridine [Compound 21]”, the IC50 was 5 µM on mTOR (FRAP1); over 50 µM at PDK1; 9 µM at PI3Kα (PIK3CA/PIK3R1) (read-out: Kinase assay IC50 PI3Kα, LanthaScreen Eu kinase binding assay).

`FC(F)(F)c1cc(C#Cc2n[nH]c3ccccc23)cc(C(F)(F)F)c1` [Compound 17, 3-((3,5-bis(trifluoromethyl)phenyl)ethynyl)-1H-indazole] came in with an IC50 in the test on AKT [pT308] of over 100 µM. Also, the “PI3Kα activity in words” value at PI3Kα (PIK3CA/PIK3R1) is on record as “poor activity”.

For the molecule `Fc1cc(F)cc(C#Cc2n[nH]c3ccccc23)c1` [Compound 8, 3-((3,5-difluorophenyl)ethynyl)-1H-indazole], the IC50 in the test on PRAS40 [pS183] was over 200 µM; with AKT [pT308], over 100 µM. At PI3Kα (PIK3CA/PIK3R1), the “PI3Kα activity in words” value is listed as “poor activity”.

The molecule `Nc1ccccc1C#Cc1n[nH]c2ccccc12` [Compound 16, 2-((1H-indazol-3-yl)ethynyl)aniline] returned an IC50 with AKT [pT308] of over 100 µM.

The molecule `N#Cc1ccc(C#Cc2n[nH]c3ccccc23)cc1` [Compound 19, 4-((1H-indazol-3-yl)ethynyl)benzonitrile] came in with an IC50 in the test with AKT [pT308] of over 50 µM. For the same molecule, the “PI3Kα activity in words” value on PI3Kα (PIK3CA/PIK3R1) was “poor activity”.

For the molecule `C(#Cc1n[nH]c2ncccc12)c1ccncc1` [Compound 20, 3-(pyridin-4-ylethynyl)-1H-pyrazolo[3,4-b]pyridine], the “loss of PI3Kα activity versus compound 10” value on PI3Kα (PIK3CA/PIK3R1) (pyrazolopyridine analog compared with indazole 10) stood at 10 fold.

With `C(#Cc1n[nH]c2ccccc12)c1ccccn1` [Compound 12, 3-(pyridin-2-ylethynyl)-1H-indazole], the IC50 with AKT [pT308] was over 100 µM.

With `Nc1ccc(C#Cc2n[nH]c3ccccc23)cc1` [Compound 6, 4-((1H-indazol-3-yl)ethynyl)aniline], the GI50 in test [1] worked out at 3.6 µM. This molecule also displayed a half-maximal inhibitory concentration (IC50) in the test with AKT [pT308] of 17.1 µM. Besides, the “selectivity for α isoform over the β and γ isoforms” value at PI-3Kα is “about 100 fold”.

Regarding `C(#CC1CCCC1)c1n[nH]c2ccccc12` [Compound 14, 3-(cyclopentylethynyl)-1H-indazol], the IC50 in the test with AKT [pT308] was over 50 µM. Besides, the “activity in words, biochemical and cell-based assays” value on PI3Kα (PIK3CA/PIK3R1) was “inactive”.

As to `C(#CC1CC1)c1n[nH]c2ccccc12` [Compound 15, 3-(cyclopropylethynyl)-1H-indazole], the IC50 with AKT [pT308] is over 50 µM. The “activity in words, biochemical and cell-based assays” value at PI3Kα (PIK3CA/PIK3R1) was “inactive”.

What is called IC50 is the point on the concentration scale where inhibition reaches its midpoint. As usually defined, the inhibition is the share of the control response that was lost under treatment. Low readings indicate little suppression, high ones strong suppression. By GI50 is commonly meant the concentration at which growth is held to half of that of the control.
